Assay results reported in ChEMBL document CHEMBL5050851, “Compounds that induce ferroptic cell death” (2020).
pIC50: −log10 of the molar value. Active and inactive are the calls of the source. The rule behind the calls is not given here.

Assays:
[1] = test system: ES-2; assay: Induction of ROS-induced lipid peroxidation in human ES2 cells at 10 uM measured after 1 hr; type: functional, cell-based
[2] = test system: Staphylococcus aureus; assay: Antibacterial activity against Staphylococcus aureus; type: functional
[3] = test system: 4T1; assay: Induction of ROS-induced lipid peroxidation in mouse 4T1 cells at 10 uM measured after 1 hr; type: functional, cell-based
[4] = test system: HCT-116; assay: Induction of PARP-1 cleavage in human HCT-116 cells measured after 1 to 7 hrs; type: functional, cell-based; conditions: time 1-7 hrs
[5] = test system: ES-2; assay: Induction of apoptosis in human ES2 cells assessed as change in cell membrane blebbing; type: functional, cell-based
[6] = target: T1, Thioredoxin, mitochondrial (Homo sapiens) (UniProt Q99757); assay: Inhibition of thioredoxin in human HCT-116 cells at 20 uM relative to control; type: cell-based
T1 sequence (whole entry): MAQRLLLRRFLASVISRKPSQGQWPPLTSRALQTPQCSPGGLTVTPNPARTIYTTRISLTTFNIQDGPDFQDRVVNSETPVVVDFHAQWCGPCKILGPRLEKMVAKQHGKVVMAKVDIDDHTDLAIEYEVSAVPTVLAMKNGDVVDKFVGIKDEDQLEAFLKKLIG

[7] = test system: ES-2; assay: Induction of ROS production in human ES2 cells at 10 to 25 uM measured by MitoSox red fluorescence assay; type: functional, cell-based; conditions: dose 10-25 µM
[8] = test system: 4T1; assay: Antitumor activity against mouse 4T1 cells xenografted immunocompetent Balb/c mouse assessed as tumor growth inhibition at 50 mg/kg, ip administered twice a week as 5 doses; type: functional; conditions: 4T1, ip, read-out: TGI
[9] = test system: ES-2; assay: Induction of ROS-induced lipid peroxidation in human ES2 cells at 10 uM pretreated with DFO and measured after 1 hr; type: functional, cell-based
[10] = test system: HCT-116; assay: Induction of cell death in human HCT-116 cells at 5 to 25 uM in presence of 5 mM NAC and measured after 10 hrs; type: functional, cell-based; conditions: dose 5-25 µM
[11] = Half-life in C57BL/6 mouse at 40 mg/kg, ip; type: ADME, organism-based; conditions: in vivo
[12] = test system: 4T1; assay: Induction of cell death in mouse 4T1 cells at 5 to 25 uM in presence of 100 uM DFO and measured after 18 hrs; type: functional, cell-based; conditions: dose 5-25 µM
[13] = test system: MIA PaCa-2; assay: Antiproliferative activity against human MIA PaCa-2 cells at 10 uM assessed as time to induce 50% cell death measured by Annexin V/propidium iodide staining method; type: functional
[14] = test system: HCT-116; assay: Induction of ROS-induced lipid peroxidation in human HCT-116 cells at 10 uM pretreated with DFO and measured after 1 hr; type: functional, cell-based
[15] = test system: HFF-1; assay: Antiproliferative activity against human HFF-1 cells after 72 hrs by Alamar blue viability assay; type: functional, cell-based; conditions: HFF-1, 72 h
[16] = test system: Escherichia coli; assay: Antibacterial activity against Escherichia coli; type: functional
[17] = test system: ES-2; assay: Antiproliferative activity against human ES2 cells at 10 uM assessed as time to induce 50% cell death measured by Annexin V/propidium iodide staining method; type: functional
[18] = test system: 4T1; assay: Induction of cell death in mouse 4T1 cells at 5 to 25 uM in presence of 2 uM ferrostatin-1 and measured after 18 hrs; type: functional, cell-based; conditions: dose 5-25 µM
[19] = test system: ES-2; assay: Induction of cell death in human ES2 cells at 5 to 25 uM in presence of 2 uM ferrostatin-1 and measured after 14 hrs; type: functional, cell-based; conditions: dose 5-25 µM
[20] = AUC in C57BL/6 mouse at 40 mg/kg, ip; type: ADME, organism-based; set-up: dose 40 mg/kg; conditions: in vivo
[21] = test system: ES-2; assay: Induction of apoptosis in human ES2 cells assessed as change in chromatin condensation; type: functional, cell-based
[22] = test system: ES-2; assay: Induction of cell death in human ES2 cells at 5 to 25 uM in presence of 250 uM trolox and measured after 14 hrs; type: functional, cell-based; conditions: dose 5-25 µM
[23] = test system: HCT-116; assay: Antiproliferative activity against human HCT-116 cells assessed as cell death after 72 hrs by Alamar blue viability assay; type: functional, cell-based; conditions: HCT-116, 72 h
[24] = test system: A549; assay: Induction of cell death in human A549 cells at 5 to 25 uM in presence of 250 uM trolox and measured after 12 hrs; type: functional, cell-based; conditions: dose 5-25 µM
[25] = test system: A549; assay: Induction of cell death in human A549 cells at 5 to 25 uM in presence of 2 uM ferrostatin-1 and measured after 12 hrs; type: functional, cell-based; conditions: dose 5-25 µM
[26] = test system: ES-2; assay: Induction of PARP-1 cleavage in human ES2 cells measured after 1 to 7 hrs; type: functional, cell-based; conditions: time 1-7 hrs
[27] = test system: A549; assay: Induction of cell death in human A549 cells at 5 to 25 uM in presence of 5 mM NAC and measured after 12 hrs; type: functional, cell-based; conditions: dose 5-25 µM
[28] = test system: ES-2; assay: Induction of ROS production in human ES2 cells at 5 to 25 uM measured by carboxy-H2DCFDA fluorescence assay; type: functional, cell-based; conditions: dose 5-25 µM
[29] = Hemolytic activity in human RBC measured by hemolysis assay; type: toxicity, cell-based; conditions: erythrocyte
[30] = target: T2, Phospholipid hydroperoxide glutathione peroxidase GPX4 (Homo sapiens) (UniProt P36969); assay: Inhibition of GPX4 in human ES2 cells at 10 uM measured after 1 hr by phosphotidylcholine hydroperoxide (PCOOH) LC-MS based assay relative to control; type: cell-based
T2 sequence (whole entry): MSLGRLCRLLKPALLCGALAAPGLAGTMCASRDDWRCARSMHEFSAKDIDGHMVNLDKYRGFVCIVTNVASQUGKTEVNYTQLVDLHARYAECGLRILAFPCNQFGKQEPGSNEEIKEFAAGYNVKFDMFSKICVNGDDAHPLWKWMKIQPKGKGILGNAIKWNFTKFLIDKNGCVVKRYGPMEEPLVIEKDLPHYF

[31] = test system: HCT-116; assay: Induction of cell death in human HCT-116 cells at 5 to 25 uM in presence of 250 uM trolox and measured after 10 hrs; type: functional, cell-based; conditions: dose 5-25 µM
[32] = test system: HCT-116; assay: Induction of cell death in human HCT-116 cells at 5 to 25 uM in presence of 2 uM ferrostatin-1 and measured after 10 hrs; type: functional, cell-based; conditions: dose 5-25 µM
[33] = test system: HCT-116; assay: Induction of cell death in human HCT-116 cells at 5 to 25 uM in presence of 100 uM DFO and measured after 10 hrs; type: functional, cell-based; conditions: dose 5-25 µM
[34] = test system: 4T1; assay: Induction of cell death in mouse 4T1 cells at 5 to 25 uM in presence of 250 uM trolox and measured after 18 hrs; type: functional, cell-based; conditions: dose 5-25 µM
[35] = test system: ES-2; assay: Antiproliferative activity against human ES2 cells assessed as cell death after 72 hrs by Alamar blue viability assay; type: functional, cell-based; conditions: ES-2, 72 h
[36] = test system: A549; assay: Induction of cell death in human A549 cells at 5 to 25 uM in presence of 100 uM DFO and measured after 12 hrs; type: functional, cell-based; conditions: dose 5-25 µM
[37] = test system: HCT-116; assay: Antiproliferative activity against human HCT-116 cells at 10 uM pretreated with 25 uM pan-caspase inhibitor Q-VD-OPh and assessed as induction of cell death measured after 13 hrs; type: functional, cell-based
[38] = test system: HCT-116; assay: Antiproliferative activity against human HCT-116 cells at 10 uM assessed as time to induce 50% cell death measured by Annexin V/propidium iodide staining method; type: functional
[39] = test system: 4T1; assay: Antitumor activity against mouse 4T1 cells xenografted immunodeficient SCID mouse assessed as tumor growth at 50 mg/kg, ip administered twice a week as 5 doses; type: functional, organism-based
[40] = target: T1, Thioredoxin, mitochondrial (Homo sapiens); assay: Inhibition of human thioredoxin at 0.5 to 10 uM measured after 30 mins relative to control; conditions: dose 0.5-10 µM
[41] = test system: HCT-116; assay: Induction of ROS production in human HCT-116 cells at 5 to 25 uM measured by carboxy-H2DCFDA fluorescence assay; type: functional, cell-based; conditions: dose 5-25 µM
[42] = test system: ES-2; assay: Antiproliferative activity against human ES2 cells at 10 uM pretreated with 25 uM pan-caspase inhibitor Q-VD-OPh and assessed as induction of cell death measured after 13 hrs; type: functional, cell-based
[43] = test system: 4T1; assay: Induction of ROS-induced lipid peroxidation in mouse 4T1 cells at 10 uM pretreated with DFO and measured after 1 hr; type: functional, cell-based
[44] = test system: HCT-116; assay: Induction of ROS-induced lipid peroxidation in human HCT-116 cells at 10 uM measured after 1 hr; type: functional, cell-based
[45] = test system: ES-2; assay: Induction of cell death in human ES2 cells at 5 to 25 uM in presence of 100 uM DFO and measured after 14 hrs; type: functional, cell-based; conditions: dose 5-25 µM
[46] = test system: MCF-10A; assay: Antiproliferative activity against human MCF-10A cells after 72 hrs by Alamar blue viability assay; type: functional, cell-based

Compound: C[C@@H]1CC[C@@]23C[C@H](O)C(=O)[C@@]2(O)[C@]1(C)[C@H](OC(=O)CCl)C[C@@H](C1=CCn2c(=O)n(-c4ccccc4)c(=O)n2C1)[C@@H]3C
- Activity [1]: Active
- MIC [2]: > 64 µg/mL
- Activity [3]: Active
- Activity [4]: inactive
- Activity [5]: inactive
- inhibition [6]: Active
- Activity [7]: Active
- inhibition in vivo at 50 mg/kg [8]: 40%
- Activity [9]: inactive
- Activity [10]: inactive
- half-life [11]: 9.96 min
- Activity [12]: inactive
- Time [13]: 1.5 h
- Activity [14]: inactive
- pIC50 [15]: 5.39
- MIC [16]: > 64 µg/mL
- Time [17]: 1 h
- Activity [18]: inactive
- Activity [19]: inactive
- AUC [20]: 7040 ng·h/mL
- Activity [21]: inactive
- Activity [22]: inactive
- pIC50 [23]: 5.46
- Activity [24]: inactive
- Activity [25]: inactive
- Activity [26]: inactive
- Activity [27]: inactive
- Activity [28]: Active
- Activity [29]: Non-Toxic
- inhibition [30]: inactive
- Activity [31]: inactive
- Activity [32]: inactive
- Activity [33]: inactive
- Activity [34]: inactive
- pIC50 [35]: 5.80
- Activity [36]: inactive
- Activity [37]: Active
- Time [38]: 7 h
- Activity [39]: inactive
- inhibition [40]: Active
- Activity [41]: Active
- Activity [42]: Active
- Activity [43]: inactive
- Activity [44]: Active
- Activity [45]: inactive
- pIC50 [46]: 5.51

Compound: CC(=O)O[C@H]1C[C@@]23CC[C@@H](C)[C@@](C)([C@H](OC(=O)CCl)C[C@@H](C4=CCn5c(=O)n(-c6ccccc6)c(=O)n5C4)[C@@H]2C)[C@]3(O)C1=O
- pIC50 [23]: 5.41
- pIC50 [35]: 5.85

Compound: CC1=CC(C)=[N+]2C1=Cc1ccc(CCC(=O)NCCCn3cc(CN4C(=O)C5CC=C([C@@H]6C[C@@H](OC(=O)CI)[C@]7(C)[C@H](C)CC[C@]8(C[C@H](O)C(=O)[C@]87O)[C@H]6C)CC5C4=O)nn3)n1[B-]2(F)F (some centres not stated)
- pIC50 [23]: 4.80
- pIC50 [35]: 5.82

Compound: C=CC(=C)[C@@H]1C[C@@H](OC(=O)CCl)[C@]2(C)[C@H](C)CC[C@]3(C[C@H](O)C(=O)[C@]32O)[C@H]1C
- pIC50 [35]: 5.17

Compound: CC(=O)OCC(=O)O[C@@H]1C[C@@H](C2=CCn3c(=O)n(-c4ccccc4)c(=O)n3C2)[C@H](C)[C@@]23CC[C@@H](C)[C@]1(C)[C@]2(O)C(=O)[C@@H](O)C3
- pIC50 [23]: < 4.00
- pIC50 [35]: < 4.00

Compound: C[C@@H]1CC[C@@]23C[C@H](O)C(=O)[C@@]2(O)[C@]1(C)[C@H](OC(=O)CI)C[C@@H](C1=CCn2c(=O)n(-c4ccccc4)c(=O)n2C1)[C@@H]3C
- pIC50 [23]: 6.18
- pIC50 [35]: 6.62

Compound: C[C@@H]1CC[C@@]23C[C@H](O)C(=O)[C@@]2(O)[C@]1(C)[C@H](OC(=O)CCl)C[C@@H](C1=CCC2C(=O)N(c4ccccc4)C(=O)C2C1)[C@@H]3C (some centres not stated)
- pIC50 [23]: 5.19
- pIC50 [35]: 5.60
